Source: BindingDB's records for doi:10.1021/jm970211n (University of Michigan, 1997)

Experiment: Inhibition of angiotensin I converting enzyme in silico

Row | SMILES | IC50 [nM]
1 | O=C(S[C@@H]1CCC[C@@H]1C(=O)N1CCC[C@H]1C(=O)O)c1ccccc1 | 63.1
2 | O=C(O)[C@@H]1CCCN1C(=O)[C@@H]1CC[C@H]1S | 158
3 | O=C(O)[C@@H]1C=CCn2c(=O)n(CS)c(=O)n21 | 2510
4 | C[C@H](NC(CCC(=O)Nc1ccc(I)cc1)C(=O)O)C(=O)N1CCC[C@H]1C(=O)O (stereo partly specified) | 0.794
5 | O=C(O)[C@@H]1CC2(CN1C(=O)CP(=O)(O)CCCCc1ccccc1)SCCS2 | 12.6
6 | O=C(O)CCc1cc(O)c2n(c1=O)[C@H](C(=O)O)CC2 | 31.6
7 | O=C(O)Cn1c(=O)n2n(c1=O)C(C(=O)O)C=CC2 (stereo unspecified) | 3.16
8 | CC1(CS)C(=O)N2CCCC(C(=O)O)N2C1=O (stereo unspecified) | 3160
9 | CC(NC(=O)C1CCCCC1S)C(=O)N1CCCC1C(=O)O (stereo unspecified) | 10
10 | CC(NP(=O)(O)O)C(=O)C1CCCC1C(=O)O (stereo unspecified) | 5.01
11 | CC(NP(=O)(O)CCc1ccccc1)C(=O)N1CCCC1C(=O)O (stereo unspecified) [1-hydroxy-1-phenylethyl-phosphinoylamino]-propionyl-pyrrolidine-2-carboxylic acid] | 25.1
